Test results: patent publication US20080014145A1, “ABALONE SETTLEMENT BIOASSAY FOR ANTI-SEIZURE SUBSTANCE SCREENING” (priority 2006, published 2008)

What was measured:
[1] = test system: Haliotis rufescens larvae; settings: cited from earlier work; for induction of larvae settlement: in vivo
[2] = test system: two different species of Haliotis; settings: cited from earlier work
Haliotis rufescens = settings: in vivo; cited from earlier work
[3] = test system: larvae of Haliotis discus hannai; settings: in vivo; cited from earlier work
[4] = biological target: T1, thyroxine-binding globulin (Homo sapiens, UniProt P05543); settings: cited from earlier work
T1 sequence (P05543 21-415): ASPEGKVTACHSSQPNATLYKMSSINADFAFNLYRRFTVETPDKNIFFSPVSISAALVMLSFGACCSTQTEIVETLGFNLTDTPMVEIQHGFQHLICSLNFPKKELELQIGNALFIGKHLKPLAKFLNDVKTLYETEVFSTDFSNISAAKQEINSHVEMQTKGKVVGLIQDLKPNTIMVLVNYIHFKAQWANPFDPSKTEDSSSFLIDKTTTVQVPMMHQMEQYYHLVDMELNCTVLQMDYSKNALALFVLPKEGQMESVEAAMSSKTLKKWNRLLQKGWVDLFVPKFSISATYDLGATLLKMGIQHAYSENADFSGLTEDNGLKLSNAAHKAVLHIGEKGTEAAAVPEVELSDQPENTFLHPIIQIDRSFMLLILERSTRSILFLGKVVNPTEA

[5] = test system: chemically induced electrographic seizures; assay: Focal perfusion of rat cerebral cortex, chemically induced electrographic seizures; type: in vivo; settings: focal perfusion of local areas of rat cerebral cortex; personal experience

## Br [Br^−]
[1]; replacing 25-75% of the Cl^− in seawater
  induction of settlement by anion replacement: may be induced

## N[C@H](CCC(=O)O)C(=O)O [D-glutamate]
[1]
  induction of larvae settlement: completely ineffective

## NCCCC(=O)O [GABA, γ-aminobutyric acid]
[1]; 10^−6 molar in sea water
  larval attachment: 96-100%

## N[C@@H](CCC(=O)O)C(=O)O [L-glutamate]
[1]
  induction of larvae settlement: did slowly promote larval settlement

## NC(=O)CC[C@H](N)C(=O)O [L-glutamine]
[1]
  induction of larvae settlement: completely ineffective

## N[C@@H](Cc1cc(I)c(Oc2cc(I)c(O)c(I)c2)c(I)c1)C(=O)O [L-thyroxine]
[2]
  induction of larval metamorphosis: can induce larval metamorphosis
Haliotis rufescens
  induction of larval metamorphosis: could induce larval metamorphosis

## [Mg+2] [Mg^+2]
[1]
  induction of larvae settlement: not able to induce

## [Na+] [Na^+]
[1]
  induction of larvae settlement: not able to induce

## N[C@@H](Cc1cc(I)c(Oc2ccc(O)c(I)c2)c(I)c1)C(=O)O [T3]
[2]
  induction of larval metamorphosis: can induce larval metamorphosis

## CBr [bromomethane]
[3]
  induction in larvae: induction has been triggered

## CN1C(=O)CN=C(c2ccccc2)c2cc(Cl)ccc21 [diazepam]
[4]
  inhibition of thyroxine binding to thyroxine-binding globulin: competitively inhibit

## CNC[C@H](O)c1ccc(O)c(O)c1 [epinephrine]
[1]
  induction of larvae settlement: not able to induce

## NCC(=O)O [glycine]
[1]
  induction of larvae settlement: can also induce Haliotis larvae settlement

## NCCc1c[nH]cn1 [histamine]
[1]
  induction of larvae settlement: not able to induce

## NCc1cc(=O)[nH]o1 [muscimol]
[1]
  induction of larvae settlement: can also induce Haliotis larvae settlement

## CCCCN [n-butylamine]
[1]
  induction of larvae settlement: not able to induce

## CCCC(=O)O [n-butyric acid]
[1]
  induction of larvae settlement: not able to induce

## NC[C@H](O)c1ccc(O)c(O)c1 [norepinephrine]
[1]
  induction of larvae settlement: not able to induce

## [Cl-].[K+] [potassium chloride]
[5]
  effect on chemically induced electrographic seizures: may prevent or abort

## [K+] [potassium]
[1]; higher concentrations of K^+
  promotion of settlement: will not promote settlement
[1]; low concentration of K^+
  effect on settlement induction by GABA: inhibit induction by GABA
[1]; ˜10 mM above that found in seawater, within 72 hours
  larva attached: up to 90%

## NCCc1c[nH]c2ccc(O)cc12 [serotonin]
[1]
  induction of larvae settlement: not able to induce

## NCCC(=O)O [β-alanine]
[1]
  induction of larvae settlement: can also induce Haliotis larvae settlement

## NCCCCC(=O)O [δ-amniovaleric]
[1]
  induction of larvae settlement: can also induce Haliotis larvae settlement

## NCCCCCC(=O)O [ε-amniocaproic acid]
[1]
  induction of larvae settlement: can also induce Haliotis larvae settlement
